The source of these data is ChEMBL document CHEMBL1201862, “PubChem BioAssay data set” (2004).

The target of assay [1] is Sphingosine 1-phosphate receptor 2 (Homo sapiens, UniProt O95136). Nature of the assay: Late-stage fluorescence-based dose-response cell-based counterscreen assay to identify agonists of the Sphingosine 1-Phosphate Receptor 3 (S1P3): Sphingosine 1-Phosphate Receptor 2 (S1P2) agonist assay. The class given is functional.
For assay [2], the target named is Sphingosine 1-phosphate receptor 4 (Homo sapiens, UniProt O95977). Nature of the assay: Late-stage fluorescence-based dose-response cell-based counterscreen assay to identify agonists of the Sphingosine 1-Phosphate Receptor 3 (S1P3): Sphingosine 1-Phosphate Receptor 4 (S1P4) agonist assay. It counts as functional.
A further assay deals with Melanocortin receptor 4 (Homo sapiens, UniProt P32245). Nature of the assay: MC4R antagonist potency on cAMP, dose response, cell-based, TR-FRET, biased antagonists (AID 602298).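 Further: antagonist potency against agonist-stimulated cAMP production.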 It counts as functional.
Assay [3] can be described thus: nonselective inhibitors of cellular cAMP signaling, dose response, counter-screen for MC4R biased antagonist project, cell-based, TR-FRET cAMP detection (AID 602305).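 Further: U2OS cells stimulated with forskolin near its EC80 as the cAMP inducer; potency is for inhibition of forskolin-stimulated cAMP signaling.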 The class given is functional.
The target of assay [4] is T1, Fatty acid synthase (Homo sapiens, UniProt P49327). Nature of the assay: FAS thioesterase domain inhibitors, dose response, biochemical, endpoint fluorescence intensity, uHTS hits (AID 624327).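 Further: fluorescence from hydrolysis of an O-methyl fluorescein acyl ester substrate by the enzyme.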 It counts as functional.
Assay [5] addresses T1, Fatty acid synthase. Nature of the assay: FAS thioesterase domain inhibitors, dose response, biochemical, kinetic fluorescence intensity (AID 624326).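 Further: rate of fluorescence rise from hydrolysis of a fluorogenic O-methyl fluorescein ester substrate.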 The class given is functional.
Assay [6] concerns the target T2, Sentrin-specific protease 8 (Homo sapiens, UniProt Q96LD8).
T2 sequence (Q96LD8 whole entry): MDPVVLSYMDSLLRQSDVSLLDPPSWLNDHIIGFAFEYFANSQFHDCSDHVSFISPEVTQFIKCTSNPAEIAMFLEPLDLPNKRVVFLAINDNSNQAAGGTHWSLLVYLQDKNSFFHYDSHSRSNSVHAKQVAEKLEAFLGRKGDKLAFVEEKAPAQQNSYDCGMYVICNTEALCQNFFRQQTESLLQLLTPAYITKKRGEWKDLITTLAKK
As to the kind of experiment: SENP8 protease inhibitors, SAR follow-up, biochemical, luminescence (AID 504501). It counts as functional.

Assay [7] has as its target T3, Caspase-3 (Homo sapiens, UniProt P42574).
T3 sequence (P42574 whole entry): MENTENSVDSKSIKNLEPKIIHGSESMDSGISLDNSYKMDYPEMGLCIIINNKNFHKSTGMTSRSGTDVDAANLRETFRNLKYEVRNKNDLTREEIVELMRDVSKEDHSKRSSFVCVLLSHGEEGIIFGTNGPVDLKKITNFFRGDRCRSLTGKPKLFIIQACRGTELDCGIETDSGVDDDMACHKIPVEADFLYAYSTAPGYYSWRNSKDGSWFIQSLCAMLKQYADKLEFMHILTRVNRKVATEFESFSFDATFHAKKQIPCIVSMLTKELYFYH
As to the kind of experiment: caspase-3 inhibitors as off-family protease, SAR follow-up, selectivity assay for SENP protease inhibitor project, biochemical, luminescence, set 2 (AID 588599). The class given is functional.

The target of assay [8] is T2, Sentrin-specific protease 8. Nature of the assay: SENP8 protease inhibitors, SAR follow-up, biochemical, luminescence, set 2 (AID 588601). It counts as functional.
Assay [9] has as its target T3, Caspase-3. Nature of the assay: SAR Analysis of small molecule inhibitors of Sentrin-specific proteases (SENPs) using a Caspase-3 Selectivity assay. [Related pubchem assays (depositor defined):AID2540, AID2599, AID434973, AID489001]. The class given is functional.
In assay [10] the target is T4, Sentrin-specific protease 7 (Homo sapiens, UniProt Q9BQF6).
T4 sequence (Q9BQF6 whole entry): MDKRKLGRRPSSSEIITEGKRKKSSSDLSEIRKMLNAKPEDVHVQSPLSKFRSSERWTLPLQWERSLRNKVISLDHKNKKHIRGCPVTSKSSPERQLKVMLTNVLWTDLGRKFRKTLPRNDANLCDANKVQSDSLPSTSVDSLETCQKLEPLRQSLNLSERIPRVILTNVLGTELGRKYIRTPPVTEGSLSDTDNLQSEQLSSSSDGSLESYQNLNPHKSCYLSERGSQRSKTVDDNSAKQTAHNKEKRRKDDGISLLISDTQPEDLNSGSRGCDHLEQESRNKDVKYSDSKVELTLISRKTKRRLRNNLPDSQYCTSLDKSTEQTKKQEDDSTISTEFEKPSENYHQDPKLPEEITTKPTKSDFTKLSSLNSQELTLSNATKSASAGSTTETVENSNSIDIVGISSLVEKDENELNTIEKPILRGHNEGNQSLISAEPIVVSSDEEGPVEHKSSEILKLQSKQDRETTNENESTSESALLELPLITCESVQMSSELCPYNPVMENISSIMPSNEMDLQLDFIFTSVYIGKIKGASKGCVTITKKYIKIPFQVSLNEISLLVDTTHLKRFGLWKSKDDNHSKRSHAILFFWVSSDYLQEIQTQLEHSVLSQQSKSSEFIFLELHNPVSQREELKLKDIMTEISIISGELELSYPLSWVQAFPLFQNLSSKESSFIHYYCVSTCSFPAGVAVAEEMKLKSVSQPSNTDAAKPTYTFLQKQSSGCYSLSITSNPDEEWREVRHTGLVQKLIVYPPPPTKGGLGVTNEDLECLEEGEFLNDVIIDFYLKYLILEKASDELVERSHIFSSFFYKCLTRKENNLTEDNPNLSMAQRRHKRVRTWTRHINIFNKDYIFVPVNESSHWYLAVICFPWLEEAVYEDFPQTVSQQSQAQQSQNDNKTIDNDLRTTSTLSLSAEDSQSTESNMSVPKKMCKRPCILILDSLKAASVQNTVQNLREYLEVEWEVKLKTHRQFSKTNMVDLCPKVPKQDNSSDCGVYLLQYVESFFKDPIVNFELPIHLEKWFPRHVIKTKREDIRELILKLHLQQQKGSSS
As to the kind of experiment: SENP7 protease inhibitors, SAR follow-up, biochemical, luminescence, set 2 (AID 588600). It counts as functional.

Assay [11] addresses T5, Sentrin-specific protease 6 (Homo sapiens, UniProt Q9GZR1).
T5 sequence (Q9GZR1 whole entry): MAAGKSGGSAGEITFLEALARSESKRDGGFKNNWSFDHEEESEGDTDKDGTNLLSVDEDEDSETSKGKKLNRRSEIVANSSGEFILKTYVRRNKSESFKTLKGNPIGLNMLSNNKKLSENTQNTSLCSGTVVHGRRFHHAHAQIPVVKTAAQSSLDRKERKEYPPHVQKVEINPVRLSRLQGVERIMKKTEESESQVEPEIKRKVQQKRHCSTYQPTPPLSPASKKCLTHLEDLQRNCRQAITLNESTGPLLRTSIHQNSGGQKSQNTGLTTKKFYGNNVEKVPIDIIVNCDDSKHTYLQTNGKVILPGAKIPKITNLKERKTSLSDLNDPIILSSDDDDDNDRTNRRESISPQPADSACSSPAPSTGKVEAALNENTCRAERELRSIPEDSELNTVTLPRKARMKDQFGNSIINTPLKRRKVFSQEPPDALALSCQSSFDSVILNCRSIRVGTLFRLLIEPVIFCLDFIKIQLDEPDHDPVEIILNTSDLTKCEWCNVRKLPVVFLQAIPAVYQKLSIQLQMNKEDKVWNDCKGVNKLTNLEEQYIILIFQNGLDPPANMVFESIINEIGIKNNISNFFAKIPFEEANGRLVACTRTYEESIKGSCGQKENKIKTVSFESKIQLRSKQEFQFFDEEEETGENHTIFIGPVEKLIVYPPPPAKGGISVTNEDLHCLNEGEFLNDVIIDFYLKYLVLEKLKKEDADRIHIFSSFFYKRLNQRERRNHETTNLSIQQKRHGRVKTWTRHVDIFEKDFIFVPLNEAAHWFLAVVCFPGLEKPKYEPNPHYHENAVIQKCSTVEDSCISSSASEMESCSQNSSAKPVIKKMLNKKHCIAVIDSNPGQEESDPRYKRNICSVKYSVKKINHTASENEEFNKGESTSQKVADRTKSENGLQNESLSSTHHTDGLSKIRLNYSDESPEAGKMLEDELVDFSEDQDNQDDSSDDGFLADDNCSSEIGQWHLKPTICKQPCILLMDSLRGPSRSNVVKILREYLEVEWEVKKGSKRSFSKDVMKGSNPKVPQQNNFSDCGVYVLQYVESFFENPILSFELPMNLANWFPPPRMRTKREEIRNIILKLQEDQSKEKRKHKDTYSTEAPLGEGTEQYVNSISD
Nature of the assay: SAR Analysis of small molecule inhibitors of Sentrin-specific protease 6 (SENP6) using a Luminescent assay. [Related pubchem assays (depositor defined):AID2582, AID2599]. It counts as functional.

Assay [12] concerns the target T5, Sentrin-specific protease 6. As to the kind of experiment: SENP6 protease inhibitors, SAR follow-up, biochemical, luminescence, set 2 (AID 588598). The class given is functional.
Assay [13] concerns the target T4, Sentrin-specific protease 7. As to the kind of experiment: SENP7 protease inhibitors, SAR follow-up, biochemical, luminescence (AID 504497). It counts as functional.
Assay [14] concerns the target Neuropeptides B/W receptor type 1 (Homo sapiens, UniProt P48145). Nature of the assay: GPR7 antagonist potency, late-stage follow-up, cell-based, fluorescence, dose response, set 5 (AID 588566). The class given is functional.
In assay [15] the target is Melanin-concentrating hormone receptor 1 (Homo sapiens, UniProt Q99705). Nature of the assay: Late-stage fluorescence-based counterscreen for antagonists of the G-protein coupled receptor 7 (GPR7): cell-based dose response assay to identify antagonists of the melanin-concentrating hormone receptor 1 (MCHR1) Set 5. The class given is functional.
Assay [16] deals with Serine/threonine-protein kinase PAK 1 (Homo sapiens, UniProt Q13153). The class given is functional.
For assay [17], the target named is MAP kinase-interacting serine/threonine-protein kinase 2 (Homo sapiens, UniProt Q9HBH9). It counts as functional.
Assay [18] addresses Interleukin-1 receptor-associated kinase 4 (Homo sapiens, UniProt Q9NWZ3). It counts as functional.
The target in assay [19] is Mitogen-activated protein kinase kinase kinase kinase 5 (Homo sapiens, UniProt Q9Y4K4). It counts as functional.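 Further: measured as one member of a kinome-spanning kinase panel.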
Assay [20] deals with Dual specificity protein kinase CLK4 (Homo sapiens, UniProt Q9HAZ1). The class given is functional.
Assay [21] deals with Mitogen-activated protein kinase kinase kinase kinase 4 (Homo sapiens, UniProt O95819). It counts as functional.
Assay [22] in a line: Luminescence Cell-Based Dose Retest to Confirm Inhibitors of Cancer Stem Cells. [Related pubchem assays (depositor defined):AID2717, AID2721]. It counts as functional. To be noted: Homo sapiens.
For another assay, the system named is CHO. As to the kind of experiment: cytotoxicity in TLR9-MyD88 CHO cells, dose response, cytotoxicity control for TLR9-MyD88 binding inhibitor project, cell-based, luminescence (AID 588339).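 Further: CHO cells stably coexpressing TLR9 and MyD88 fusions from primary screen; compound exposure lasted 48 hours before viability readout.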 The class given is functional, hamster. To be noted: Cricetulus griseus.
In assay [23] the target is T6, Insulin-degrading enzyme (Homo sapiens, UniProt P14735). As to the kind of experiment: activators of recombinant IDE enzyme, dose response, counter-screen for IDE activator project, biochemical, fluorescence polarization (AID 588681).
In another assay the target is Beta Lactamase (Pseudomonas aeruginosa, UniProt Q932Y6). Nature of the assay: beta-lactamase reporter inhibitor potency, dose response, artefact control for TLR9-MyD88 binding inhibitor project, BLA reporter cells, FRET fluorescence (AID 588341).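 Further: cell based assay in CHO-K1 cells stably expressing beta-lactamase.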 It counts as cell-based.
For assay [24], the target named is T6, Insulin-degrading enzyme. As to the kind of experiment: activators of endogenous IDE in HEK cells, dose response, cell-based, fluorescence polarization (AID 588439). It counts as functional.
Assay [25] concerns HEK293. Nature of the assay: HEK cell cytotoxicity by LDH release, dose response, cytotoxicity control for IDE activator project, fluorescence, HEK cells (AID 588440).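 Further: cytotoxicity by LDH release measuring loss of membrane integrity.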 To be noted: Homo sapiens. It counts as functional, cell-based.
For assay [26], the system named is HEK293. As to the kind of experiment: optical interference in Abeta FP readout, dose response, artefact control for IDE activator project, biochemical, fluorescence polarization (AID 588442). The class given is functional, cell-based. Conditions: Homo sapiens.

Calls of active or inactive are those of the source.
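Wherever AC50 is given: cells exposed to compound for roughly 70 hours or longer before luminescence read.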

T1 sequence (P49327 whole entry, the tested form may be a part): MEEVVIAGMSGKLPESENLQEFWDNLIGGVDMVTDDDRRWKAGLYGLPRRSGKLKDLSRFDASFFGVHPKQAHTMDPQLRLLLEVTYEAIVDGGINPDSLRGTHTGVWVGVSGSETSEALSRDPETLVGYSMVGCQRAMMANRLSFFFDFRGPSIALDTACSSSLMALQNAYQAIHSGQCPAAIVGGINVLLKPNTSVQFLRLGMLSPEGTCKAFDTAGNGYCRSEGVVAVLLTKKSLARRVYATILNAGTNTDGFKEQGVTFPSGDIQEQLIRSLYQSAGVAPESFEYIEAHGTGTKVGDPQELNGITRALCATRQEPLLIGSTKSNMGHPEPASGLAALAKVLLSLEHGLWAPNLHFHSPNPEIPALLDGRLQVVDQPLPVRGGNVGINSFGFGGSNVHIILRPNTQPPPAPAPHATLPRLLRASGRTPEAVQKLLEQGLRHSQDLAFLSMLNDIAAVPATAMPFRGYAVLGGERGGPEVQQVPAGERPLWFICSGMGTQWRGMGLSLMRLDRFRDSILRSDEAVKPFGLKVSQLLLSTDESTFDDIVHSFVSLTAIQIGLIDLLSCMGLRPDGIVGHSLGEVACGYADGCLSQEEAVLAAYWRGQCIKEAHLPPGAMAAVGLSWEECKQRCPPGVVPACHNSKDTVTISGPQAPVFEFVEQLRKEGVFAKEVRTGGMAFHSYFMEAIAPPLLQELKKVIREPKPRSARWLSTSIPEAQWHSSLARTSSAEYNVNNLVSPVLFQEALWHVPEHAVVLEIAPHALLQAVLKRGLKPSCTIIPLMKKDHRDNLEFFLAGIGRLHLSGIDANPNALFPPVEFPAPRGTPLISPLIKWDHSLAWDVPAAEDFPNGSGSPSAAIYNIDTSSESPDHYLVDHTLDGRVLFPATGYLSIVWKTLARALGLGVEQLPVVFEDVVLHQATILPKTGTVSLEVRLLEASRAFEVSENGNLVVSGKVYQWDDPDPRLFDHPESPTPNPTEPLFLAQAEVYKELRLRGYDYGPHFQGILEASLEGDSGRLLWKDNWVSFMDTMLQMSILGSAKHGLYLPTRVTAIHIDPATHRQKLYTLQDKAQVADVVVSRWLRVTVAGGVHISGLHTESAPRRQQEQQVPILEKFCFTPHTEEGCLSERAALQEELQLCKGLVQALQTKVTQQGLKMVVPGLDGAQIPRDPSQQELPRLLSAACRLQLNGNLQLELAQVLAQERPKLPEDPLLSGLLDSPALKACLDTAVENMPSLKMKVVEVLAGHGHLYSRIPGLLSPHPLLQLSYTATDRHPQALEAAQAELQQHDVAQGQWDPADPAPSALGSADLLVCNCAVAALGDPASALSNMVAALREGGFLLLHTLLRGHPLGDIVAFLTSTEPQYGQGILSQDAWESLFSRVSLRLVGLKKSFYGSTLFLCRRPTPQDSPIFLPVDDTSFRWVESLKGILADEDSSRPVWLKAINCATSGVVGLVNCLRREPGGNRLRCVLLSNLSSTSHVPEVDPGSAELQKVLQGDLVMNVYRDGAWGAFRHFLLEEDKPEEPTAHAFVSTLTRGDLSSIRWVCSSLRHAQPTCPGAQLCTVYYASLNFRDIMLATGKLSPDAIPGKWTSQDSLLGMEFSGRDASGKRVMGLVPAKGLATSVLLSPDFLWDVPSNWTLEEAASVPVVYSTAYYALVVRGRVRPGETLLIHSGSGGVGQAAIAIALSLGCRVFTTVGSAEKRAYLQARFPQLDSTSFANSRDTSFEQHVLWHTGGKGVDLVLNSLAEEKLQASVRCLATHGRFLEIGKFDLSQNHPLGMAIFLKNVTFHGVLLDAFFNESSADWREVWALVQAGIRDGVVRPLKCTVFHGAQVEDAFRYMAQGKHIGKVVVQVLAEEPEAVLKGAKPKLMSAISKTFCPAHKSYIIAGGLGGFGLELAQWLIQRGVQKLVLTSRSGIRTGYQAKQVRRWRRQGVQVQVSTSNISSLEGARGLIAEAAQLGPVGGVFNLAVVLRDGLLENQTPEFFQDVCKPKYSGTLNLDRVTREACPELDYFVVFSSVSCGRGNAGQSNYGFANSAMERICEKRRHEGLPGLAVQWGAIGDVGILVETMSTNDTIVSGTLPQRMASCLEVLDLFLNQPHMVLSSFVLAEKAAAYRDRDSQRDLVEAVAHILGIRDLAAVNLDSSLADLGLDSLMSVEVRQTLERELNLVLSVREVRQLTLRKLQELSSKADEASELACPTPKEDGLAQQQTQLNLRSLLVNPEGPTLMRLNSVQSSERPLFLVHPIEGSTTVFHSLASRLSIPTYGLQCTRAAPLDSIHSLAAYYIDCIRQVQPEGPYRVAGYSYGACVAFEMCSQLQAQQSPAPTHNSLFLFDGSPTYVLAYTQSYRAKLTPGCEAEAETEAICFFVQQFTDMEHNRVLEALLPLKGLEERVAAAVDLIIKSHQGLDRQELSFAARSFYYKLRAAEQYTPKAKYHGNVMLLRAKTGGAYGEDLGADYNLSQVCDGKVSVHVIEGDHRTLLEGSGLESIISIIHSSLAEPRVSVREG
T6 sequence (P14735 whole entry): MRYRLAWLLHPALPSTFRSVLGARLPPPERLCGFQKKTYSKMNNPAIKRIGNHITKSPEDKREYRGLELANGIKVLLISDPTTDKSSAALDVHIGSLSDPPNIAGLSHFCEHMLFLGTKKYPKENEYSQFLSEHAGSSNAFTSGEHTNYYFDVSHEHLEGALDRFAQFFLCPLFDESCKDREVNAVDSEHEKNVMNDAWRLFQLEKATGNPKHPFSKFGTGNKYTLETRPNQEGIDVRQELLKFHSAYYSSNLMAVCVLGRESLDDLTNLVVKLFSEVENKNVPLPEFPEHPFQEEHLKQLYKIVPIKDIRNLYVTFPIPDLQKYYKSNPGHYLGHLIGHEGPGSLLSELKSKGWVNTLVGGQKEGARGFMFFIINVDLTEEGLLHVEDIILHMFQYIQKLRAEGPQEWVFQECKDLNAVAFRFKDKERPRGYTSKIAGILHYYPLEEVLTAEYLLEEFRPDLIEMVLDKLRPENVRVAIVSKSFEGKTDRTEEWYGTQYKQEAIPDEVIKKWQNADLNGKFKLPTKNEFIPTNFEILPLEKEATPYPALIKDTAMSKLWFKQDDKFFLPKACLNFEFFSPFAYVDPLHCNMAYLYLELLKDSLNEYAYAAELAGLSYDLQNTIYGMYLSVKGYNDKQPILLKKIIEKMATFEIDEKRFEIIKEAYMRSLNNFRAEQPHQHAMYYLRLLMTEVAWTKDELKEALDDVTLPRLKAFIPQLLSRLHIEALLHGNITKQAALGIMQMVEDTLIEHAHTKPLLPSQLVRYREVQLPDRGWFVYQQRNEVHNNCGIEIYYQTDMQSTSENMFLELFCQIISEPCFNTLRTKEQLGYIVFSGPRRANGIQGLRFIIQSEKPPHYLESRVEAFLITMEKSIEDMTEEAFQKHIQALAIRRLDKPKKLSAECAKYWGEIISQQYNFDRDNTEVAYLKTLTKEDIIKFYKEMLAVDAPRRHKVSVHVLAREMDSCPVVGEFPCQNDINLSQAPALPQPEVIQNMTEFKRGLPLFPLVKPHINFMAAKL
Mitogen-activated protein kinase kinase kinase kinase 4, sequence (O95819 whole entry): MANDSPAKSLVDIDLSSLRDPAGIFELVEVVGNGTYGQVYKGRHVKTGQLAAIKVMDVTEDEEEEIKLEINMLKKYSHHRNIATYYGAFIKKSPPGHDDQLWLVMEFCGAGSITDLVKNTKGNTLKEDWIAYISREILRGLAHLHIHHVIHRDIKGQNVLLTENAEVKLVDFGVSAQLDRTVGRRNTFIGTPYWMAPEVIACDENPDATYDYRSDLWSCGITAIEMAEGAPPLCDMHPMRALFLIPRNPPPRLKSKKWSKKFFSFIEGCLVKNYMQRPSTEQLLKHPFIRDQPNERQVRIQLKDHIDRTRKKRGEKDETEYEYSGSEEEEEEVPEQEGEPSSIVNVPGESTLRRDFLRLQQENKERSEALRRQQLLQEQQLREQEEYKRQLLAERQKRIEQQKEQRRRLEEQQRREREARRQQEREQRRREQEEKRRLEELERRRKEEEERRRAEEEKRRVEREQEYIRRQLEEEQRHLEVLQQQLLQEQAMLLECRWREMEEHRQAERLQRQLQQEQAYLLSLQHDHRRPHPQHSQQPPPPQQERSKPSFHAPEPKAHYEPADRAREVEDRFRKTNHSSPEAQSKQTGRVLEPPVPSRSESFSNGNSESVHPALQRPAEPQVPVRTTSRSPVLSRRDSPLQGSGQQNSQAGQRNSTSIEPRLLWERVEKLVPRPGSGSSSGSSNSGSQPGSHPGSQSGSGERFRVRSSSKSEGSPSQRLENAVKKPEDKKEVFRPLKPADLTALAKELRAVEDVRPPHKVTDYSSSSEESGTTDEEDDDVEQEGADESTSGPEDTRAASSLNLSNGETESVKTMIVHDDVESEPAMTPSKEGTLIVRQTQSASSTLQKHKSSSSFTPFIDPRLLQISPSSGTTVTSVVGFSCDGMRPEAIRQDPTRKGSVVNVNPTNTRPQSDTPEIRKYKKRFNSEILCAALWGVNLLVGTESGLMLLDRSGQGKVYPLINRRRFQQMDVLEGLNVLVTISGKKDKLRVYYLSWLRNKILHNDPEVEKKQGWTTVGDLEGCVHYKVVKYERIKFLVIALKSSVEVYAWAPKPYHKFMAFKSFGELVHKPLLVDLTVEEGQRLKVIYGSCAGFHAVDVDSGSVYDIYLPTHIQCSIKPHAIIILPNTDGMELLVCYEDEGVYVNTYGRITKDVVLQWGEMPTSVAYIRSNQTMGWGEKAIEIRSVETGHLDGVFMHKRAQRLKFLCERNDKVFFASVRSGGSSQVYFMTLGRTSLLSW
Beta Lactamase, sequence (Q932Y6 whole entry): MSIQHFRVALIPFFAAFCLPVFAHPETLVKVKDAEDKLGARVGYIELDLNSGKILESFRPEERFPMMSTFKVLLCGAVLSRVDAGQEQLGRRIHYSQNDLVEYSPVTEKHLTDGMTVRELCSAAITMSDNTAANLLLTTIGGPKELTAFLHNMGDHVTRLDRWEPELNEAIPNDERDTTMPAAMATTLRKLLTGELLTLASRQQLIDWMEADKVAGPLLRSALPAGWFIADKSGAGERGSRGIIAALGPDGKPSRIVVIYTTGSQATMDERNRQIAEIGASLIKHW

Regarding `CCCc1cc(C(=O)NC2CCCCC2)no1`, the EC50 in assay [1] and in [2] was > 50 µM (inactive) each time.

As for `O=C(Oc1ccccc1C(=O)Nc1ccccc1)c1ccc(Br)c([N+](=O)[O-])c1`, the IC50 was > 64.6 µM (inactive) on Melanocortin receptor 4, > 64.6 µM (inactive) in assay [3], 4.66 µM (active) on Fatty acid synthase [4] and 5.97 µM (active) on Fatty acid synthase [5].

Take `O=C(Nc1nc2c(F)cccc2s1)c1cccs1`: the IC50 in assay [6] was 4.1 µM (active); on Caspase-3 [7], 3.68 µM (active); in [8], 2.66 µM (active); at Caspase-3 [9] it was 3.6 µM (active); in assay [10] it was 2.7 µM (active); in [11], 3.5 µM (active). Besides, the IC50 in [12] was 3.02 µM (active); in assay [13] it was 2 µM (active).

Turning to `CCOc1ccc(Oc2c(S(C)(=O)=O)cnn(Cc3cccc4ccccc34)c2=O)cc1`, the IC50 in assay [14] is 2.55 µM (active); in assay [15], 0.804 µM (active).

Consider `CC(=O)c1cccc(-c2cnc3ccccc3c2)c1`, for which the Ki is > 10 µM (inactive) in assay [16]; 6.31 µM (active) in assay [17]; > 10 µM (inactive) in assay [18]; 1 µM (active) in assay [19]; 3.98 µM (active) in [20]; 1.26 µM (active) in assay [21].

For the compound `CCCCCCSc1cc(-c2nc3cnccn3c2NCCCC)ccc1OC`, the AC50 in assay [22] was 4.56 µM (active). Moreover, the IC50 in the assay with CHO is 21.2 µM (inactive); at Beta Lactamase, 7.42 µM (active); with HEK293 [25] it was 33.6 µM (inactive). Further, the EC50 was > 54.7 µM (inactive) at Insulin-degrading enzyme [23], 13.9 µM (inactive) on Insulin-degrading enzyme [24] and > 56 µM (inactive) with HEK293 [26].
